Data on three compounds can be found in patent US20130059385A1, “METHODS OF GENERATING PLURIPOTENT STEM CELLS” (THE SCRIPPS RESEARCH INSTITUTE, priority 2010, published 2013).

The test system of one assay is MEF cells. The settings on record: cited from earlier work.
Assay [1] has as its system Neural progenitor cells (NPCs). The settings on record: NPC reprogramming, Shi et al. 2008; cited from earlier work.
Assay [2] concerns MEFs transduced with Oct4, Sox2 and Klf4. Put plainly: Reprogramming of MEFs transduced by Oct4, Sox2 and Klf4 (AP-positive / Oct4-GFP-positive colonies). Type of assay: cell-based, mouse. An excerpt: FIG. 1. CHIR99021 promoted the reprogramming of MEFs transduced by Oct4, Sox2 and Klf4. MEFs from 129 strain were transduced with Oct4, Sox2 and Klf4 by retroviruses, and treated the next day with increasing concentrations of CHIR99021 for two week. Three weeks later, AP was detected by staining cells in monolayer (A). […] After 3 weeks of treatment, the GFP positive colonies in each well were counted (B).
Cell Culture and Viral Transduction: MEFs were derived from 12952/SvPasCrlf and ROSA26^+/−/OG2^+/− mice according to the protocol reported on WiCell Research Institute website: “Introduction to human embryonic stem cell culture methods”. ROSA26^+/−/OG2^+/− transgenic mice carry GFP reporter gene under the control of the Oct4 promoter (Oct4-GFP) and the ubiquitously expressed neo/lacZ transgene [Do J T, Scholer H R, Stem Cells, 22:941-949 (2004)]. Animal experiments were performed according to the Animal Protection Guidelines of the Max Planck Institute for Biomolecular Research, Germany. […] MEFs transduced with Oct4/Klf4/Sox2 (1×10^4 cells/well together with 10^5 cells/well CF1 feeders in 6-well plates) were then treated with GSK-3 inhibitor CHIR99021 (Stemgent) for two weeks, and EGFP positive colonies were picked up at the third week after treatment. MEFs transduced with Oct4/Klf4 (1×10^5 cells/well in 6-well plates) were treated with 10 μM CHIR99021 for four weeks, GFP positive colonies were picked up and expanded at the fourth to fifth week after treatment.
Cytochemistry and Immunofluorescence Assay: Alkaline Phosphatase staining was performed according to the manufacturer's protocol using the Alkaline Phosphatase Detection Kit (Millipore). For immunofluorescence assay, cells were fixed in 4% paraformaldehyde for 10 minutes and washed three times with PBS containing 0.1% Triton X-100 (Sigma-Aldrich). The fixed cells were then incubated in blocking buffer, 0.1% Triton X-100 and 10% normal donkey serum (Jackson ImmunoResearch Laboratories Inc) in PBS (Invitrogen/Gibco BRL), for 30 min at room temperature. […]

Assay [3] concerns Sox2 and Oct4 expression in MEFs. Put plainly: Real-time PCR of pluripotency gene expression in untransduced MEFs after treatment. Type of assay: cell-based, mouse. The settings on record: 10 μM CHIR99021, three days. An excerpt:
FIG. 2. […] Scale bars, 20μm. […] PCR analysis: […] The primer for viral Klf4 was [NT] and [NT]. The primer for FGF-4 was [NT] and [NT].
(In general: Quantitative PCR measures a nucleic acid by following its amplification.)

With `Nc1ncn([C@@H]2O[C@H](CO)[C@@H](O)[C@H]2O)c(=O)n1` [5-AZA], the “improvement of reprogramming efficiency” value in the assay on MEF cells is recorded as “up to 4 folds”.
As to `COc1cc2nc(N3CCCN(C)CC3)nc(NC3CCN(Cc4ccccc4)CC3)c2cc1OC` [BIX-01294], in assay [1], the “enhancement of reprogramming efficiency” value was “over 8 fold”.
In the case of `Cc1c[nH]c(-c2cnc(NCCNc3ccc(C#N)cn3)nc2-c2ccc(Cl)cc2Cl)n1` [CHIR99021], in assay [2] (Oct4/Sox2/Klf4-transduced ROSA26+/-/OG2+/- MEFs), the “concentration showing the greatest effects on reprogramming” value is on record as “about 10 μM”. For the same compound, the “reprogramming efficiency (GFP-positive colonies) of transduced MEFs” value in assay [2] (about 10 μM CHIR99021, treated two weeks, counted after 3 weeks, without compound 0.03-0.08%) was 0.2-0.4%. Moreover, the “number of AP-positive mESC-like colonies” value in assay [2] (treated two weeks, AP staining at third week after treatment) was “significantly increased the number of alkaline phosphase (AP)-positive mESC-like colonies in a dose-dependent manner”. In assay [3], the “induction of Sox2 and Oct4 expression in MEFs (real-time PCR)” value was “did not induce the expression of Sox2 and Oct4”.
